*1 amine or outer side, *2 acyl side, *3 side chain or, on linkers, in order; H or OH if unused. Where a SMILES comes first, the peptide text is derived from it. Bridges are numbered along the chain shown (N, C = ends). TATA = O=C(CC[*:1])N1CN(C(=O)CC[*:2])CN(C(=O)CC[*:3])C1

One experiment concerns the target T1, human Nectin-4 (Homo sapiens, UniProt Q96NY8).
T1 sequence (Q96NY8 32-510): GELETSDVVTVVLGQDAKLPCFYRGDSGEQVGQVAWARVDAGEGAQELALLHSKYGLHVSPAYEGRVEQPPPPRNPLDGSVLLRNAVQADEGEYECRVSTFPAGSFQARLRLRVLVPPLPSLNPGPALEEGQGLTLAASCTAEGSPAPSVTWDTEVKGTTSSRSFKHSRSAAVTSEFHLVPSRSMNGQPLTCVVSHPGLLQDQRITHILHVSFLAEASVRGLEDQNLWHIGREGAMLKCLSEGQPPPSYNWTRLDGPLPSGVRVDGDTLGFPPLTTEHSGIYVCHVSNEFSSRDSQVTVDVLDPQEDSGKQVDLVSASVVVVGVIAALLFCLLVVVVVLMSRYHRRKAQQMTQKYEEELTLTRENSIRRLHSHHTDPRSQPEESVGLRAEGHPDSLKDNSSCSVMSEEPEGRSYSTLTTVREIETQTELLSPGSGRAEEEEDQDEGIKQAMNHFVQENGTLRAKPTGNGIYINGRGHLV
Put plainly: Nectin-4 competition binding assay (fluorescence polarisation).
Settings: not given
Summed up: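 Ki derived by cubic-equation fit of mP data, with tracer peptide concentration, its Kd and Nectin-4 level as fixed inputs. Competition set up by adding 2-fold peptide dilutions (≤5% DMSO), then Nectin-4, then fluorescent peptide; polarisation measured as for direct binding.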
In general terms: Polarisation of emitted light reports the rotation of a fluorescent probe.
`CC[C@H](C)[C@@H]1NC(=O)[C@@H]2CCCN2C(=O)[C@H](Cc2c[nH]c3ccccc23)NC(=O)[C@H](CO)NC(=O)[C@H](Cc2c[nH]c3ccccc23)NC(=O)[C@H](CC(=O)O)NC(=O)[C@H](CCCCN)NC(=O)[C@H](CCSC)NC(=O)[C@@H]2CSCCC(=O)N3CN(CN(C3)C(=O)CCSC[C@H](NC(C)=O)C(=O)N3CCC[C@H]3C(=O)N[C@@H](Cc3ccccc3)C(=O)NCC(=O)N2)C(=O)CCSC[C@@H](C(N)=O)NC(=O)[C@H](Cc2c[nH]c3ccccc23)NC1=O` [BCY7661, Ac-(SEQ ID NO: 15)] (Ac-CPFGCMKDWSWPIWC-NH2; linker 1-5-15 via TATA; C-terminus assumed) returned a Ki of 29.4 nM.

Still in this experiment, the particulars now being: competition with fluorescent peptide SEQ ID NO: 217; read-out: Ki.
`CC[C@H](C)[C@@H]1NC(=O)[C@@H]2CCCN2C(=O)[C@H](Cc2c[nH]c3ccccc23)NC(=O)[C@H](CO)NC(=O)[C@H](Cc2c[nH]c3ccccc23)NC(=O)[C@H](CC(N)=O)NC(=O)[C@@H]2CCCN2C(=O)[C@H](CCSC)NC(=O)[C@@H]2CSCCC(=O)N3CN(CN(C3)C(=O)CCSC[C@H](NC(C)=O)C(=O)N3CCC[C@H]3C(=O)N[C@@H](Cc3ccccc3)C(=O)NCC(=O)N2)C(=O)CCSC[C@@H](C(N)=O)NC(=O)[C@H](Cc2c[nH]c3ccccc23)NC1=O` [BCY7614, Ac-(SEQ ID NO: 99)] (Ac-CPFGCMPNWSWPIWC-NH2; linker 1-5-15 via TATA; C-terminus assumed): the inhibition constant (Ki) amounted to 21 nM. On the same count and under the same terms, the value for `CC[C@H](C)[C@@H]1NC(=O)[C@H](CCCNC(=N)N)NC(=O)[C@H](CC(N)=O)NC(=O)[C@@H]2CSCCC(=O)N3CN(CN(C3)C(=O)CCSC[C@H](NC(=O)[C@H](Cc3c[nH]c4ccccc34)NC(=O)[C@H](CCCCN)NC(=O)[C@H](C)NC(C)=O)C(=O)N[C@@H](C)C(=O)N3CCC[C@H]3C(=O)N[C@@H](CC(C)C)C(=O)N[C@@H](CO)C(=O)N[C@@H](CC(=O)O)C(=O)N[C@@H](Cc3ccc(O)cc3)C(=O)N[C@@H](Cc3c[nH]c4ccccc34)C(=O)N2)C(=O)CCSC[C@@H](C(N)=O)NC1=O` [BCY7622, Ac-AKW-(SEQ ID NO: 34)] (Ac-AKWCAPLSDYWCNRIC-NH2; linker 4-12-16 via TATA; C-terminus assumed) was 31 nM; that for `CC[C@H](C)[C@@H]1NC(=O)[C@H](CCCNC(=N)N)NC(=O)[C@H](CC(N)=O)NC(=O)[C@@H]2CSCCC(=O)N3CN(CN(C3)C(=O)CCSC[C@H](NC(=O)[C@H](Cc3c[nH]c4ccccc34)NC(=O)[C@H](C)NC(=O)[C@H](CCC(N)=O)NC(C)=O)C(=O)N[C@@H](C)C(=O)N3CCC[C@H]3C(=O)N[C@@H](CC(C)C)C(=O)N[C@@H](CO)C(=O)N[C@@H](CC(=O)O)C(=O)N[C@@H](Cc3ccc(O)cc3)C(=O)N[C@@H](Cc3c[nH]c4ccccc34)C(=O)N2)C(=O)CCSC[C@@H](C(N)=O)NC1=O` [BCY7623, Ac-QAW-(SEQ ID NO: 34)] (Ac-QAWCAPLSDYWCNRIC-NH2; linker 4-12-16 via TATA; C-terminus assumed) was 21 nM; that for `CC[C@H](C)[C@@H]1NC(=O)[C@H](CCCNC(=N)N)NC(=O)[C@H](CC(N)=O)NC(=O)[C@@H]2CSCCC(=O)N3CN(CN(C3)C(=O)CCSC[C@H](NC(=O)[C@H](C)NC(=O)[C@H](CCCCN)NC(=O)[C@H](CCC(N)=O)NC(C)=O)C(=O)N[C@@H](C)C(=O)N3CCC[C@H]3C(=O)N[C@@H](CC(C)C)C(=O)N[C@@H](CO)C(=O)N[C@@H](CC(=O)O)C(=O)N[C@@H](Cc3ccc(O)cc3)C(=O)N[C@@H](Cc3c[nH]c4ccccc34)C(=O)N2)C(=O)CCSC[C@@H](C(N)=O)NC1=O` [BCY7624, Ac-QKA-(SEQ ID NO: 34)] (Ac-QKACAPLSDYWCNRIC-NH2; linker 4-12-16 via TATA; C-terminus assumed) was 571 nM.

As for `CC[C@H](C)[C@@H]1NC(=O)[C@H](CCCNC(=N)N)NC(=O)[C@H](CC(N)=O)NC(=O)[C@@H]2CSCCC(=O)N3CN(CN(C3)C(=O)CCSC[C@H](NC(=O)[C@H](Cc3c[nH]c4ccccc34)NC(=O)[C@H](CCCCN)NC(=O)[C@H](CCC(N)=O)NC(C)=O)C(=O)N[C@@H](C)C(=O)N[C@@H](C)C(=O)N[C@@H](CC(C)C)C(=O)N[C@@H](CO)C(=O)N[C@@H](CC(=O)O)C(=O)N[C@@H](Cc3ccc(O)cc3)C(=O)N[C@@H](Cc3c[nH]c4ccccc34)C(=O)N2)C(=O)CCSC[C@@H](C(N)=O)NC1=O` [BCY7625, Ac-QKW-(SEQ ID NO: 103)] (Ac-QKWCAALSDYWCNRIC-NH2; linker 4-12-16 via TATA; C-terminus assumed), the Ki is 141 nM. For the molecule `CC[C@H](C)[C@@H]1NC(=O)[C@H](CCCNC(=N)N)NC(=O)[C@H](CC(N)=O)NC(=O)[C@@H]2CSCCC(=O)N3CN(CN(C3)C(=O)CCSC[C@H](NC(=O)[C@H](Cc3c[nH]c4ccccc34)NC(=O)[C@H](CCCCN)NC(=O)[C@H](CCC(N)=O)NC(C)=O)C(=O)N[C@@H](C)C(=O)N3CCC[C@H]3C(=O)N[C@@H](CC(C)C)C(=O)N[C@@H](C)C(=O)N[C@@H](CC(=O)O)C(=O)N[C@@H](Cc3ccc(O)cc3)C(=O)N[C@@H](Cc3c[nH]c4ccccc34)C(=O)N2)C(=O)CCSC[C@@H](C(N)=O)NC1=O` [BCY7627, Ac-QKW-(SEQ ID NO: 104)] (Ac-QKWCAPLADYWCNRIC-NH2; linker 4-12-16 via TATA; C-terminus assumed), the inhibition constant (Ki) worked out at 101 nM.

For the molecule `CC[C@H](C)[C@@H]1NC(=O)[C@H](CCCNC(=N)N)NC(=O)[C@H](C)NC(=O)[C@@H]2CSCCC(=O)N3CN(CN(C3)C(=O)CCSC[C@H](NC(=O)[C@H](Cc3c[nH]c4ccccc34)NC(=O)[C@H](CCCCN)NC(=O)[C@H](CCC(N)=O)NC(C)=O)C(=O)N[C@@H](C)C(=O)N3CCC[C@H]3C(=O)N[C@@H](CC(C)C)C(=O)N[C@@H](CO)C(=O)N[C@@H](CC(=O)O)C(=O)N[C@@H](Cc3ccc(O)cc3)C(=O)N[C@@H](Cc3c[nH]c4ccccc34)C(=O)N2)C(=O)CCSC[C@@H](C(N)=O)NC1=O` [BCY7631, Ac-QKW-(SEQ ID NO: 106)] (Ac-QKWCAPLSDYWCARIC-NH2; linker 4-12-16 via TATA; C-terminus assumed), the inhibitory constant (Ki) amounted to 19 nM. Still for that read-out and setting: the value for `CC[C@H](C)[C@@H]1NC(=O)[C@H](C)NC(=O)[C@H](CC(N)=O)NC(=O)[C@@H]2CSCCC(=O)N3CN(CN(C3)C(=O)CCSC[C@H](NC(=O)[C@H](Cc3c[nH]c4ccccc34)NC(=O)[C@H](CCCCN)NC(=O)[C@H](CCC(N)=O)NC(C)=O)C(=O)N[C@@H](C)C(=O)N3CCC[C@H]3C(=O)N[C@@H](CC(C)C)C(=O)N[C@@H](CO)C(=O)N[C@@H](CC(=O)O)C(=O)N[C@@H](Cc3ccc(O)cc3)C(=O)N[C@@H](Cc3c[nH]c4ccccc34)C(=O)N2)C(=O)CCSC[C@@H](C(N)=O)NC1=O` [BCY7632, Ac-QKW-(SEQ ID NO: 107)] (Ac-QKWCAPLSDYWCNAIC-NH2; linker 4-12-16 via TATA; C-terminus assumed) was 123 nM; that for `CC[C@H](C)[C@@H]1NC(=O)[C@@H]2CCCN2C(=O)[C@H](Cc2c[nH]c3ccccc23)NC(=O)[C@H](CO)NC(=O)[C@H](Cc2c[nH]c3ccccc23)NC(=O)[C@H](CC(N)=O)NC(=O)[C@H](CO)NC(=O)[C@H](CCSC)NC(=O)[C@@H]2CSCCC(=O)N3CN(CN(C3)C(=O)CCSC[C@H](NC(C)=O)C(=O)N3CCC[C@H]3C(=O)N[C@@H](Cc3ccccc3)C(=O)NCC(=O)N2)C(=O)CCSC[C@@H](C(N)=O)NC(=O)[C@H](Cc2c[nH]c3ccccc23)NC1=O` [BCY7658, Ac-(SEQ ID NO: 12)] (Ac-CPFGCMSNWSWPIWC-NH2; linker 1-5-15 via TATA; C-terminus assumed) was 33.6 nM; that for `CC[C@H](C)[C@@H]1NC(=O)[C@@H]2CCCN2C(=O)[C@H](Cc2c[nH]c3ccccc23)NC(=O)[C@H](CO)NC(=O)[C@H](Cc2c[nH]c3ccccc23)NC(=O)[C@H](CC(N)=O)NC(=O)[C@H](CC(=O)O)NC(=O)[C@H](CCSC)NC(=O)[C@@H]2CSCCC(=O)N3CN(CN(C3)C(=O)CCSC[C@H](NC(C)=O)C(=O)N3CCC[C@H]3C(=O)N[C@@H](Cc3ccccc3)C(=O)NCC(=O)N2)C(=O)CCSC[C@@H](C(N)=O)NC(=O)[C@H](Cc2c[nH]c3ccccc23)NC1=O` [BCY7659, Ac-(SEQ ID NO: 13)] (Ac-CPFGCMDNWSWPIWC-NH2; linker 1-5-15 via TATA; C-terminus assumed) was 77.9 nM. Same read-out and setting: to `CC[C@H](C)[C@@H]1NC(=O)[C@@H]2CCCN2C(=O)[C@H](Cc2c[nH]c3ccccc23)NC(=O)[C@H](CO)NC(=O)[C@H](Cc2c[nH]c3ccccc23)NC(=O)[C@H](CC(N)=O)NC(=O)[C@H](CCCCNC(=N)N)NC(=O)[C@H](CCSC)NC(=O)[C@@H]2CSCCC(=O)N3CN(CN(C3)C(=O)CCSC[C@H](NC(C)=O)C(=O)N3CCC[C@H]3C(=O)N[C@@H](Cc3ccccc3)C(=O)NCC(=O)N2)C(=O)CCSC[C@@H](C(N)=O)NC(=O)[C@H](Cc2c[nH]c3ccccc23)NC1=O` [BCY7660, Ac-(SEQ ID NO: 59)] belongs 26.2 nM; to `CC[C@H](C)[C@@H]1NC(=O)[C@@H]2CCCN2C(=O)[C@H](Cc2c[nH]c3ccccc23)NC(=O)[C@H](CO)NC(=O)[C@H](Cc2c[nH]c3ccccc23)NC(=O)[C@H](Cc2c[nH]cn2)NC(=O)[C@H](CCCCN)NC(=O)[C@H](CCSC)NC(=O)[C@@H]2CSCCC(=O)N3CN(CN(C3)C(=O)CCSC[C@H](NC(C)=O)C(=O)N3CCC[C@H]3C(=O)N[C@@H](Cc3ccccc3)C(=O)NCC(=O)N2)C(=O)CCSC[C@@H](C(N)=O)NC(=O)[C@H](Cc2c[nH]c3ccccc23)NC1=O` [BCY7662, Ac-(SEQ ID NO: 16)] (Ac-CPFGCMKHWSWPIWC-NH2; linker 1-5-15 via TATA; C-terminus assumed), 14.8 nM.

In general, Ki refers to a dissociation constant, usually derived from enzyme kinetics or from competition with a known ligand.

(Values after US12459974B2, “Bicyclic peptide ligands specific for Nectin-4” (priority 2018, dated 2025).)
